One experiment concerns endothelial cells (CPAE). Nature of the experiment: Apoptosis and cell cycle by flow cytometry (Hoechst 33342 and annexin V). The format is cell-based, bovine. How it is done:
Technique of specific vital staining of DNA with Hoechst 33342 (Sigma).
The endothelial cells (CPAE) were trypsinated and the cell suspension was adjusted to 1·10^6 cells/ml. Hoechst 33342 dye was added at the rate of 20 μg/ml and the cells were incubated for three minutes at ambient temperature under agitation. The percentage of apoptotic cells was analyzed by a flow cytometer (FACS). The cells were then incubated for 30 minutes in darkness (37° C.) and analysis of the cell cycle was performed.
Technique using annexin V (R and D system): A residue of 1·10^6 endothelial cells (CPAE) was resuspended in 1 ml of reaction buffer (100 μl of 10× binding buffer (100 mM Hepes/NaOH pH 7.4, 1.5 M NaCl, 50 mM KCl, 10 mM MgCl2, 18 mM CaCl2), 100 μl of propidium iodide (initial concentration 50 μg/ml), 10 μl of annexin V-FITC and 790 μl of deionized water. The suspension was incubated for 15 minutes in darkness at ambient temperature. The percentage of apoptotic cells was analyzed by flow cytometry.

The next experiment deals with MDA-MB-231. The experiment can be described thus: Cell proliferation, tritiated thymidine incorporation. It counts as cell-based. Particulars: MDA-MB-231, human cancer cells, mean±SEM. How it is done:
(§1) The cells were cultured at the rate of 20,000 cells per well (96-well plate, Greiner) in the complete medium. After 24 h, the cells were cultured in a medium containing a concentration lower by half than that corresponding to the complete medium to induce the cell in phase G0/G1 of proliferation for 24 supplementary hours. The cells were then cultured for 30 h with complete medium in the presence or without the presence of AMEP. Tritiated thymidine (1 μCi per well) was then added to the cells and incubated for 18 hours. Incorporation of the tritiated thymidine by the cells was quantified by filter paper according to the protocol described for the use of a Skatron (Skatron, Lier, Norway). Radioactivity was then determined by counting after addition of scintillation liquid. The results were expressed as a percentage in relation to the control.

The subject of another experiment is HMVEC-d. Described as above. It counts as cell-based. The conditions noted are these: human endothelial cells, mean±SEM. How it is done: as §1
The test system of another experiment is HMVEC. The experiment is described as above. It counts as cell-based. The conditions noted are these: human endothelial cells, mean±SEM. How it is done: as §1
For experiment [1], the system named is CPAE cells (calf pulmonary artery endothelial cells). The experiment can be described thus: Adhesion of CPAE endothelial cells to fibrinogen, vitronectin and fibronectin. It counts as cell-based, bovine. How it is done: First technique: punctual incubation of the endothelial cells with AMEP during the test.
The CPAE were detached from the culture plates by incubation with 1.5 mM EDTA and resuspended at the rate of 5×10^5 cells/ml in the adhesion buffer (140 mM NaCl, 10 mM Hepes, 5 mM glucose, 5.4 mM KCl, 2 mM CaCl2, 1 mM MgCl2, 1 mM MnCl2, pH 7.4). […] Dutcher) that had been incubated in advance for one night at 4° C. with 50 μl of purified fibrinogen (40 μg/ml in PBS; Kabi), 10 μg/ml of vitronectin (Sigma); 30 μg/ml of fibronectin (Sigma) and 1% of BSA (bovine serum albumin) as negative control. After 20 minutes of incubation of the CPAE cells at 37° C., the plate was washed twice with 200 μl of adhesion buffer and the nonspecific sites were saturated with PBS supplemented with 1% of BSA for 1 hour at 37° C. The plate was then washed again twice with the adhesion buffer containing 1% of BSA. The nonadherent cells were eliminated by washing the wells three times with 200 μl of adhesion buffer plus 1% of BSA. Measurement of the phosphatase activity of the cells enabled quantification of the adherent cells. In brief, 100 μl of paranitrophenol phosphate (Sigma) at 3 mg/ml in the acetate buffer pH containing 0.1% of X100 Triton was added to the wells and incubated for 2 h at 37° C. The reaction was stopped by the addition of 1N NaOH. The release of paranitrophenol, which indicates the number of adherent cells, was measured after reading of the absorbance at 405 nm with an ELISA reader (Titertek Twinreader). […] The remainder of the protocol was identical to the that described above with the exception that no additional incubation of the cells with AMEP was performed.

Another experiment deals with CPAE. The experiment can be described thus: Cell proliferation, tritiated thymidine incorporation. It counts as cell-based, Bovine. How it is done:
as §1

The subject of another experiment is B16F10. The description is as above. It counts as cell-based, murine. The conditions noted are these: B16F10 cancer cells, mean±SEM. The procedure:
as §1

A further experiment has as its system B16F10 cells. The experiment can be described thus: Syngenic metastatic tumor model (pulmonary metastases). It counts as in vivo. Particulars: C57B1/6 mice, B16F10 i.v.; AMEP expressed in muscle, doxycycline induction; after 7 days of treatment. An excerpt:
The cDNA of AMEP was subcloned at the Eco RV site of the vector pBi (Clonetech, Palo Alto, Calif., USA). The expression of the gene of interest in this vector was under the dependence of a promoter responding to tetracycline in an expression system involving the eukaryote gene Tet-On. The Tet-On vector expresses the transactivator rtTA (reverse tetracycline transcriptional activator) and the vector Tet-tTS expresses the silencer tTS (tetracycline transcriptional silencer). The purifications of the plasmids were performed in a manner such that no endotoxin was present (Maxi endo free Kit, Quiagen). The purified plasmid DNA was dissolved in endotoxin-free sterile 0.9% NaCl at the desired concentration.
20 μg of plasmid pBi-AMEP, 10 μg of plasmid Tet-off and 20 μg of plasmid Tet-on were dissolved in 30 μl of sterile 0.9% NaCl and injected into the tibia cranial muscle of nude or C57B1/6 mice aged 8 weeks and previously anesthetized by intraperitoneal inoculation of pentobarbital as described by Mir et al. (Mir et al., 1999). In brief, 8 electric shocks of 200 V/cm were applied for 20 ms at a frequency of 1 Hz, by means of an electrode to the mouse paw and containing two steel plates. The electrode was connected to an electropulsator PS-15 (Jouan, St Herblain, France). The same plasmids not containing the AMEP gene constituted the negative control. […]

Where [2] appears, read: cells incubated punctually for 30 minutes prior to adhesion test, 1.4-kDa peptide 1 μg/ml, AMEP 10 μg/ml (comparable molar concentration).
Where [3] appears, read: cells preincubated for 24 h, same molar concentration (AMEP 10 μg/ml, 1.4-kDa peptide 1 μg/ml).

“AMEP: disintegrin domain of human metargidin (Met-420 to Glu-511, SEQ ID NO. 2), 91 amino acids, 9.7 kDa; recombinant or expressed in vivo by gene electrotransfer”: the “% of apoptotic cells, Hoechst 33342 method” value with endothelial cells (CPAE) (CPAE, AMEP 5 μg/ml, control 3.9 ± 1.1, mean±SEM) came to 12.6 ± 3.7%. Besides, the “% of apoptotic cells, Annexin-V method” value in the experiment with endothelial cells (CPAE) (CPAE, AMEP 5 μg/ml, control 4.6 ± 0.9, mean±SEM) was determined as 12.8 ± 2.5%. Moreover, the “modification of the cell cycle” value in the experiment on endothelial cells (CPAE) (Hoechst 33342, not shown) was “no modification of the cell cycle”. Moreover, in the experiment on endothelial cells (CPAE) (both methods (Hoechst 33342, annexin-V)), the “percentage of apoptotic cells multiplied by (factor versus control)” value is reported as 3. For the same substance, the “% inhibition of cell proliferation by AMEP (5 μg/ml)” value with MDA-MB-231 was determined as 17.5 ± 0.5%; in the experiment with HMVEC-d, 54.2 ± 2.1%; with HMVEC it was 52.6 ± 3.1%; in the experiment on CPAE (bovine endothelial cells, 5 μg/ml, mean±SEM), 60.4 ± 3.2%; with B16F10 it was 74.3 ± 7.0%. The “inhibition of adhesion of endothelial cells on fibrinogen” value in experiment [1] (setting [2]) is reported as “no significant effect”; in experiment [1] (setting [3]) it was 30%. In addition, the “inhibition of adhesion of endothelial cells on vitronectin” value in experiment [1] (setting [2]) is “no significant effect”; in experiment [1] (setting [3]), 30%. In addition, in experiment [1] (setting [3]), the “inhibition of adhesion of endothelial cells on fibronectin” value came to 30%. For the same substance, the “inhibition of proliferation of endothelial cells” value in the experiment with CPAE (2 μg/ml) is given as 40%; in the experiment with CPAE (5 μg/ml (maximal effect)), 60%; in the experiment with CPAE (10 μg/ml, compared with 60% at 5 μg/ml), “identical percentage”. Further, the “inhibition of the number of pulmonary metastases” value in the experiment on B16F10 cells came to 74.2%.

The values above are taken from patent US8207137B2, “Method of inhibiting angiogenesis or invasion or formation of metastases” (INSERM, priority 2001, dated 2012).
